In article PMC10788917 (Journal of Medicinal Chemistry, 2023) one finds IC50 data, which are given here for 10 molecules.

Numbering of substitutions follows the chain as printed.

What all share (experiment): HDAC8 mutant biochemical assay
The target in assay [1] is T1, HDAC8 Cys102Ser/Cys153Ser/Cys352Ser (Homo sapiens, UniProt Q9BY41, C102S/C153S/C352S).
T1 construct: made in house
T1 sequence (Q9BY41 1-377 C102S/C153S/C352S): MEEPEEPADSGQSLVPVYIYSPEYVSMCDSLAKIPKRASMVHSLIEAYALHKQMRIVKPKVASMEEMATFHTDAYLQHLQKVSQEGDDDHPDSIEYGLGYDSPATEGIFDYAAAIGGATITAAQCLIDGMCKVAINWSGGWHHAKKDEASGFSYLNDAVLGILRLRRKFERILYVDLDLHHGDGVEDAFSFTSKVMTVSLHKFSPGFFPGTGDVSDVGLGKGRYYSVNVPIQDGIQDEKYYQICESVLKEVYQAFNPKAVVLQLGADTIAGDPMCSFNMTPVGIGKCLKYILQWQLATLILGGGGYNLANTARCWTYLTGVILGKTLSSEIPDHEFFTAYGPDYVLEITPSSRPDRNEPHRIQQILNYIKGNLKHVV
To be noted: read-out: IC50 [μM] @ 100 nM HDAC8: I Cys102Ser/Cys153Ser/Cys352Ser, 1 h preincubation. Here is the method: (§1) HDAC8 mutant variants were generated, produced, and further purified as described previously.[32] Cysteines 28 and 314 were exchanged with serine using the following primer pairs: HD8_C28S_for, […]; HD8_C28S_rev, […]; HD8_C314S_for, […]; HD8_C314S_rev, […].
(§2) The enzyme activity assay was performed in assay buffer [25 mM Tris-HCl (pH 8.0), 50 mM NaCl, and 0.001% (v/v) Pluronic F-68] in black half-area 96-well microplates (Greiner Bio-One). For the initial screening, 10 nM HDAC8 was preincubated with the indicated compounds at 250 μM for 2 h at 30 °C. […] The reaction was initiated by the addition of 20 μM Boc-Lys(TFA)-AMC (Bachem). After substrate conversion at 30 °C for 15 min for HDAC8 and 1 h for HDAC8 mutants and HDAC4, the reaction was stopped by adding 1.67 μM suberoylanilide trifluoromethylketone (SATFMK). The deacetylated substrate was cleaved with 0.42 mg/mL trypsin to release fluorescent 7-amino-4-methylcoumarin (AMC), which was detected with a microplate reader (PHERAstar FS […]) with fluorescence excitation at 360 nm and emission at 460 nm. IC50 values were calculated by generating dose–response curves in GraphPad Prism 6 and fitting those to a four-parameter logistic model.

For assay [2], the target named is T2, HDAC8 Cys102Ser/Cys153Ser/Cys125Ser (Homo sapiens, UniProt Q9BY41, C102S/C125S/C153S).
T2 construct: made in house
T2 sequence (Q9BY41 1-377 C102S/C125S/C153S): T1 sequence (Q9BY41 1-377 C102S/C153S/C352S) with C125S, S352C
To be noted: read-out: IC50 [μM] @ 100 nM HDAC8: C Cys102Ser/Cys153Ser/Cys125Ser, 1 h preincubation. Here is the method: as §1, §2

Assay [3] deals with T3, HDAC8 Cys102Ser/Cys153Ser/Cys275Ser (Homo sapiens, UniProt Q9BY41, C102S/C153S/C275S).
T3 construct: made in house
T3 sequence (Q9BY41 1-377 C102S/C153S/C275S): T1 sequence (Q9BY41 1-377 C102S/C153S/C352S) with C275S, S352C
To be noted: read-out: IC50 [μM] @ 100 nM HDAC8: F Cys102Ser/Cys153Ser/Cys275Ser, 1 h preincubation. As to the method:
as §1, §2

Assay [4] concerns the target T4, HDAC8 Cys102Ser/Cys153Ser/Cys244Ser (Homo sapiens, UniProt Q9BY41, C102S/C153S/C244S).
T4 construct: made in house
T4 sequence (Q9BY41 1-377 C102S/C153S/C244S): T1 sequence (Q9BY41 1-377 C102S/C153S/C352S) with C244S, S352C
To be noted: read-out: IC50 [μM] @ 100 nM HDAC8: E Cys102Ser/Cys153Ser/Cys244Ser, 1 h preincubation. Here is the method: as §1, §2

As to `C[n+]1ccccc1I` [A3+], the IC50 in assay [1] was 36 ± 2 µM; in assay [2], 65 ± 6 µM; in assay [3] it was 24 ± 3 µM; in assay [4] it was over 130 µM.

Consider `C[n+]1cncc(Br)c1` [F2+], for which the IC50 was 15 ± 1 µM in assay [1], 56 ± 5 µM in assay [2], 19 ± 4 µM in assay [3] and 87 ± 7 µM in assay [4].

Turning to `C#Cc1cc[n+](C)cc1` [C6+], the IC50 stood at 9 ± 1 µM in assay [1], 15 ± 1 µM in assay [2], 4.2 ± 0.3 µM in assay [3] and 24 ± 3 µM in assay [4].

Take `C[n+]1cccnc1Cl` [D1+]: the IC50 in assay [1] is 41 ± 7 µM; in assay [2], 82 ± 4 µM; in assay [3] it was 13 ± 3 µM; in assay [4], over 130 µM.

With `C[n+]1ccc(I)cc1` [C3+], the IC50 in assay [1] is 29 ± 2 µM; in assay [2], 81 ± 4 µM; in assay [3], 17 ± 1 µM; in assay [4], over 130 µM.

Take `C[n+]1cccnc1Br` [D2+]: the IC50 in assay [1] was 15 ± 2 µM; in assay [2], 52 ± 7 µM; in assay [3] it was 35 ± 14 µM; in assay [4], over 130 µM.

`C[n+]1cccnc1I` [D3+]: the IC50 in assay [1] was 11 ± 1 µM; in assay [2], 14 ± 1 µM; in assay [3] it was 16 ± 2 µM; in assay [4], 40 ± 6 µM.

As for `C#Cc1c[n+](C)ccn1` [G6+], the IC50 in assay [1] worked out at 59 ± 3 µM; in assay [2], 126 ± 17 µM; in assay [3], 64 ± 16 µM; in assay [4], 100 ± 12 µM.

`C[n+]1cncc(I)c1` [F3+]: the IC50 in assay [1] is 29 ± 6 µM; in assay [3], 15 µM; in assay [4], 26 ± 4 µM.

`C#Cc1nccc[n+]1C` [D6+]: the IC50 in assay [1] is 118 ± 13 µM; in assay [2] it was over 130 µM; in assay [3] it was 107 ± 10 µM; in assay [4] it was over 130 µM.
